Data reported in PubChem BioAssay (NCI).
“And” between values parts separate entries of the source, which are not always exact repeats. Equal values may be shown once.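 Five concentrations, 48 hours, 96-well plates. Abbreviation: GI50, concentration required for 50% inhibition of growth. The concentration for full growth arrest is given as TGI.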

Experiments:
Experiment in all cases: growth of human tumour cells (NCI), 48 h
[1] = tested on: DU-145 prostate
[2] = tested on: HOP-62 NSCLC
[3] = tested on: HS 578T breast
[4] = tested on: IGROV1 ovarian
[5] = tested on: OVCAR-8 ovarian
[6] = tested on: SF-295 CNS
[7] = tested on: SF-539 CNS
[8] = tested on: SK-MEL-2 melanoma
[9] = tested on: SNB-75 CNS
[10] = tested on: U251 CNS

Structure (SMILES)	TGI [1]	TGI [2]	TGI [3]	TGI [4]	TGI [5]	TGI [6]	TGI [7]	TGI [8]	TGI [9]	TGI [10]	GI50 [1]	GI50 [2]	GI50 [3]	GI50 [4]	GI50 [5]	GI50 [6]	GI50 [7]	GI50 [8]	GI50 [9]	GI50 [10]
CO[C@H]1Nc2c(ccc(C)c2O)C(=O)N2C=C(/C=C/C(N)=O)C[C@@H]12	> 62 µM	0.0386 µM	0.0407 µM	7.33 µM	2.01 µM	1.75 µM	0.0384 µM	0.0223 µM	0.0576 µM	10.8 µM										
O=C(/C=C/c1ccccc1)c1ccccc1	> 10 µM	> 10 µM	> 10 µM	> 10 µM	> 10 µM	> 10 µM	> 10 µM	> 10 µM	> 10 µM	> 10 µM										
Cc1cc(Nc2nc(-c3cn(-c4ccc(Cl)cc4)nn3)nc3ccccc23)n[nH]1	> 50 µM	> 50 µM	> 50 µM	> 50 µM	> 50 µM	38.5 µM	> 50 µM	29.8 µM	> 50 µM	> 50 µM	10.7 µM	14 µM	> 50 µM	9.16 µM	18.5 µM	7.6 µM	27.3 µM	8.23 µM	23 µM	9.39 µM
O=C(NCc1ccc(Cn2c(=O)sn(-c3ccccc3)c2=O)cc1)OCc1ccc2cccc(O)c2n1	2.29 µM	3.52 µM	4.9 µM	1.96 µM	3 µM	5.82 µM	2.3 µM	3 µM	2.08 µM	2.92 µM	1.08 µM	1.55 µM	1.71 µM	0.596 µM	0.957 µM	2.14 µM	1.05 µM	1.46 µM	0.783 µM	1.47 µM
CN(C)C(=S)SSC(=S)N(C)C	52.4 µM and > 100 µM	34.8 µM and > 100 µM	40.9 µM and > 100 µM and > 90.6 µM	> 100 µM and 29.3 µM	30.5 µM and 65.8 µM and 36.1 µM	81.9 µM and > 100 µM and 57.1 µM	31.9 µM and > 100 µM and > 45.8 µM	> 100 µM and 39.4 µM	38.5 µM and > 100 µM	26 µM and > 65.3 µM and 38.5 µM	20.6 µM	18 µM	15.2 µM and > 100 µM and 45 µM	> 89.9 µM	15.8 µM and 5.61 µM and 16.4 µM		16.3 µM and 40.8 µM and 10.7 µM	34.2 µM and 57 µM and 17 µM	15.2 µM	12.6 µM
O=C(/C(=C\c1c(-c2ccccc2)[nH]c2ccccc12)S(=O)(=O)c1ccccc1)c1ccccc1	> 100 µM	> 100 µM	> 100 µM	> 100 µM	> 100 µM	> 100 µM	> 100 µM	> 100 µM	> 100 µM	> 100 µM	> 100 µM	> 100 µM	39.5 µM	> 100 µM	> 100 µM	3.47 µM	> 100 µM	> 100 µM	10.1 µM	8.64 µM
COc1ccc(C(=O)c2cc(OC)c(OC)c(OC)c2)cc1OC	> 100 µM	> 100 µM	8.83 µM	> 100 µM	> 100 µM	4.27 µM	5.14 µM	> 100 µM	> 100 µM	> 100 µM										
Nc1cc(Br)c(-c2nnc(CCC(=O)c3nc4ccccc4[nH]3)o2)c(Br)c1	53.5 µM	> 100 µM	31.7 µM	62.7 µM	> 100 µM	35.6 µM	60.8 µM	> 100 µM	20.5 µM	> 100 µM	5.4 µM	23.7 µM	3.75 µM	5.87 µM	21.6 µM	9.78 µM	17.3 µM	4.3 µM	2.96 µM	3.5 µM
